What is called GI50 is the concentration at which growth is held to half of that of the control. The term IC50 denotes the concentration needed to halve the response being measured.

The text below walks through data of patent publication US8815935B2, “Inhibitors of protein prenyltransferases” (The Regents of the University of California, priority 2008, dated 2014).

The target in test [1] is T1, FTase (Rattus norvegicus, UniProt Q02293+Q04631).
T1 construct: purchased JENA BIOSCIENCE
Put plainly: In vitro FTase assay (K-Ras4B substrate, [3H]FPP). The test is classed as biochemical. The conditions noted are these: at concentrations at which GGTase-I was inhibited by more than 90%. An excerpt:
To further characterize the pilot library, inhibitors of protein farnesyltransferase were identified. This was accomplished by using K-Ras4B as a substrate protein, tritiated farnesylpyrophosphate ([^3H]FPP) and protein farnesyltransferase. See Finegold, A. A., Johnson, D. I., Farnsworth, C. C., Gelb, M. H., Judd, S. R., Glomset, J. A. and Tamanoi, F. (1991) Protein geranylgeranyltransferase of Saccharomyces cerevisiae is specific for Cys-Xaa-Xaa-Leu motif and requires the CDC43 gene product but not the DPR1 gene product. Proc. Natl. Acad. Sci. USA 88, 4448-4452. […] On the other hand, the structure of the compounds P1-F11, P2-B7 and P2-E9 resemble those of GGTIs. The FTI P1-F11 resembles the GGTI P1-F10, while the FTI P2-B7 resembles the GGTI P2-C10. The FTI P2-E9 is similar to the GGTI P2-G3. Similarity of some GGTI and FTI compounds may point to common structural features between the two closely related enzymes. As described before, FTase and GGTase I have similar three-dimensional structures and a shared alpha subunit. On the other hand, FTase specific inhibitors may recognize a region(s) that is different between the two enzymes.
Examples 2-8 illustrate assays of bioactivity. These methods are applicable to the compounds of the present invention having the particular linkers and scaffolds described herein, to determine their activity. […] Varying concentrations of the two compounds were added to each enzyme reaction. The FTase (protein farnesyltransferase) assay was carried out using K-Ras4B as a substrate protein, FTase (JENA Bioscience, San Diego, Calif.) and [3H]farnesyl pyrophosphate. Incubation was for 30 min at 37° C.
GGTase-I and FTase activities were determined by following the incorporation of radiolabeled isoprenoid [^3H]-geranylgeranyl or [^3H]-farnesyl into substrate proteins. FTase or GGTase-I (50 nM) were used to initiate reactions containing 0.4 μM of [^3H]-FPP or 0.5 μM of [^3H]-GGPP and 2 μM of MBP-tagged substrates (K-Ras4B for FTase; RhoA for GGTase-I) in 20 μl of buffer {50 mM Tris-HCl (pH 7.5), 10 mM MgCl2, […] and 5 mM DTT}. Inhibitors were added at the indicated concentrations. The final DMSO concentration was 2.5% for all samples.
Reactions were carried out for 10 min at 30° C. The reaction mixture was spotted onto a filter paper, treated with 10% trichloroacetic acid (TCA) followed by ethanol and acetone washing. The filter was counted using a scintillation counter. Kinetic assays in which the GGPP concentration was varied employed fixed concentrations of GGTase-I and RhoA, and reactions were carried out for 5 min. Similarly, fixed concentrations of GGTase-I and GGPP were used when the amount of RhoA was varied.

Test [2] deals with geranylgeranylated Rheb (Rheb-CSVL) in HEK 293 cells. Put plainly: Rheb-CSVL mobility shift in HEK 293 cells. The format is cell-based, human. The conditions noted are these: 48 hours. An excerpt:
Finally, we investigated in vivo effects of compounds 22 (also known as UC-22) and 23 (also known as UC-23). Human embryonic kidney (HEK) 293 cells were transfected with the Rheb-CSVL construct that expresses the geranylgeranylated form of the Rheb protein. Inhibition of the geranylgeranylation of this protein can be detected from a shift in its mobility on SDS polyacrylamide gel; the unprocessed form appears as a slowly migrating band.
Human embryonic kidney (HEK) 293 cells expressing Myc-HA tagged-Rheb-CVSL (upper) or Myc-HA tagged-Rheb-WT (lower) were treated with P3-E5 for 48 hours and then lysed. The cell lysates were run on a SDS polyacrylamide gel and immunoblotted using anti-Myc or anti-Actin antibody. The descriptors P and U indicate processed and unprocessed Rheb, respectively.
Human embryonic kidney (HEK) 293 cells expressing Myc-HA tagged-Rheb-CVSL (upper) or Myc-HA tagged-Rheb-WT (lower) were treated with mP5-H6a (also referred to as mP5-H6), or GGTI-298 for 48 hours and then lysed. Lysates were run on a SDS polyacrylamide gel and immunoblotted with anti-Myc or anti-Actin antibody.

Test [3] concerns Jurkat cells. Put plainly: Jurkat cell growth inhibition. The format is cell-based, human. In a few lines: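 Jurkat T-cell leukemia cells were exposed to compound for 72 h, with cell number counted and viability read by CCK-8 relative to the DMSO control. GI50 is the compound concentration giving 50% growth inhibition.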
The subject of test [4] is K562 cells. Put plainly: K562 cell growth inhibition. The test is classed as cell-based, human. The conditions noted are these: no unit printed there. The procedure:
K562 cells are a cell line of human erythroleukemia cells. The K562 cells were treated with P3-E5, P5-H6 or GGTI-298 (a known GGTI compound illustrated in FIG. 27) for 72 hours and then cell number was counted using cell counting kit-8 (Dojindo, Gaithersburg, Md.). Cell viability relative to the DMSO control and the known GGTI compound is plotted in FIG. 23.
(§1) Cell viability was determined by Cell Counting Kit-8 (CCK-8, Dojindo, Kumamoto, Japan) as described previously (31). Cell viability was calculated relative to the DMSO control. Cell cycle profile was analyzed by flow cytometry as described previously (32).

The test system of test [5] is MDA-MB-231. Put plainly: MDA-MB-231 cell growth inhibition. The conditions noted are these: no unit printed there. The format is cell-based, human. The procedure: (§2) In FIG. 9-24 in vitro IC50 values for the GGTase I activity are reported. In Tables 7-15 in cell GI50 values for the growth inhibition of a variety of cancer cell lines (e.g., Jurkat, K562, MDA-MB-231, BT474, MCF7, MiaPaCa2, Aspc-1, Panc-1, Capan-2, CFpac-1, and MCF10a) are reported.
as §1

The test system of test [6] is BT474. Put plainly: BT474 cell growth inhibition. The test is classed as cell-based, human. The conditions noted are these: no unit printed there. The procedure:
as §2, §1

Test [7] has as its system MCF7. Kind of test: MCF7 cell growth inhibition. The format is cell-based, human. The conditions noted are these: Homo sapiens, MCF7, Tables 8-15; no unit printed there. The procedure: as §2, §1
Test [8] concerns MCF10a. Kind of test: MCF10a cell growth inhibition. The test is classed as cell-based. The conditions noted are these: Homo sapiens, MCF-10A, Tables 8-15; no unit printed there.
Excerpt: as §2

Test [9] deals with MiaPaCa2. Kind of test: MiaPaCa2 cell growth inhibition. The conditions noted are these: no unit printed there. The test is classed as cell-based, human. The procedure: as §2, §1
Test [10] deals with Aspc-1. Put plainly: Aspc-1 cell growth inhibition. The format is cell-based, human. The conditions noted are these: no unit printed there. The procedure: as §2, §1
Test [11] deals with Panc-1. Kind of test: Panc-1 cell growth inhibition. The test is classed as cell-based, human. The conditions noted are these: no unit printed there. The procedure:
as §2
Panc-1 cells (Pancreatic cancer cell line) and Jurkat cells (T-cell leukemia) were treated with 12.5 μM of P5-H6 or 12.5 μM of mP5-H6a for 72 hours. The cell number was counted as described in Example 5.
as §1

The subject of test [12] is Capan-2. Kind of test: Capan-2 cell growth inhibition. The format is cell-based, human. The conditions noted are these: no unit printed there. The procedure: as §2, §1
The test system of test [13] is CFpac-1. Put plainly: CFpac-1 cell growth inhibition. The conditions noted are these: no unit printed there. The test is classed as cell-based, human. The procedure:
as §2, §1

Test [14] has as its target T2, GGTase-I (Rattus norvegicus, UniProt P53610+Q04631).
T2 construct: purchased JENA BIOSCIENCE
Put plainly: In vitro GGTase-I enzyme assay (IC50, kinetics). The format is biochemical. In a few lines: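 Rat GGTase-I (50 nM) with 0.5 μM [3H]-GGPP and 2 μM MBP-RhoA in Tris-HCl pH 7.5, MgCl2, ZnCl2, DTT, 2.5% DMSO, 10 min at 30 °C; radiolabel incorporation by TCA filter binding and scintillation. Kinetics: 5 min reactions varying GGPP or RhoA at fixed other components.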

The mark [15] stands for this setting: Homo sapiens, Jurkat, Tables 8-15, no unit printed there, read-out: Jurkat GI50.
Setting [16] is: Homo sapiens, K562, Tables 8-15.
[17] abbreviates: Homo sapiens, BT-474, Tables 8-15.
Where [18] appears, read: Homo sapiens, MIA PaCa-2, Tables 8-15.
Where [19] appears, read: Homo sapiens, ASPC1, Tables 8-15.
Setting [20] is: Homo sapiens, PANC-1, Tables 8-15.
[21] abbreviates: Homo sapiens, Capan-2, Tables 8-15.
Where [22] appears, read: Homo sapiens, CFPAC-1, Tables 8-15.
The mark [23] stands for this setting: Tables 3, 5, 7, read-out: In vitro (enzyme assay) IC50, GGTase I.
Setting [24] is: Tables 8-15, no unit printed there (Table 7 head: μM unless otherwise specified), read-out: In vitro (GGTase I IC50).
Setting [25] is: Homo sapiens, Jurkat, Tables 4, 6, 7, read-out: Jurkat cell GI50.

Read-outs that look alike come from different tables or passages of the source.

As for `Cc1ccccc1S(=O)(=O)N1[C@@H](c2ccc(Cl)cc2)C(C(=O)O)=C[C@H]1C(C)(C)C` [compound 22], the “inhibition of FTase” value in [1] is recorded as “did not inhibit FTase”. In test [2], the “inhibition of geranylgeranylation of Rheb-CSVL (slowly migrating unprocessed band)” value was “inhibit geranylgeranylation within the cell”.
Consider `Cc1ccccc1S(=O)(=O)N1[C@@H](c2ccc(Cl)cc2)C(C(=O)N[C@@H](Cc2ccccc2)C(N)=O)=C[C@H]1C(C)(C)C` [P61A6], for which the GI50 in test [3] (setting [15]) was found to be 4.89 µM; in test [4] (setting [16]), 6.28 µM; in [5] (Homo sapiens, MDA-MB-231, Tables 8-15), 8.25 µM; in [6] (setting [17]) it was 8.64 µM; in test [7], 3.72 µM; in [8], 13.2 µM. For the same compound, the concentration for 50% growth inhibition (GI50) was found to be 7.48 µM in test [9] (setting [18]); 12.4 µM in test [10] (setting [19]); 13 µM in test [11] (setting [20]); 11.5 µM in test [12] (setting [21]); 6.38 µM in test [13] (setting [22]).
Regarding `Cc1ccccc1S(=O)(=O)N1C(c2ccc(Cl)cc2)CC=C(C(=O)O)[C@@H]1c1cccc(Cl)c1` (some centres unmarked) [compound 23], in [1], the “inhibition of FTase” value is recorded as “did not inhibit FTase”. Also, in test [2], the “inhibition of geranylgeranylation of Rheb-CSVL (slowly migrating unprocessed band)” value was “inhibit geranylgeranylation within the cell”.
For the compound `Cc1ccccc1S(=O)(=O)N1[C@@H](c2ccc(Cl)c(Cl)c2)C(C(=O)N[C@@H](Cc2ccccc2)C(N)=O)=C[C@H]1C(C)(C)C` [P61-B11], the IC50 in [14] (setting [23]) and in test [14] (setting [24]) was 7.6 µM throughout. Besides, the GI50 in test [3] (Tables 4, 6, 7, read-out: Jurkat cell GI50) was 6.9 µM; in [3] (Tables 8-15, no unit printed there, read-out: Jurkat GI50), 6.9 µM; in test [4] (Tables 8-15) it was 6.9 µM; in [5] (Tables 8-15) it was 5.54 µM; in test [6] (Tables 8-15), 10.6 µM; in test [7], 4.74 µM. Moreover, the GI50 in [8] was 9.38 µM; in test [9] (Tables 8-15) it was 7.49 µM; in test [10] (Tables 8-15), 11.5 µM; in test [11] (Tables 8-15), 7.52 µM; in test [12] (Tables 8-15), 11.3 µM; in [13] (Tables 8-15) it was 2.03 µM.
In the case of `Cc1ccccc1S(=O)(=O)N1[C@@H](c2ccc(Cl)c(Cl)c2)C(C(=O)N[C@@H](Cc2ccccc2)C(N)=O)=C[C@H]1C(C)(C)C` [P61-B10], the half-inhibitory concentration (IC50) in test [14] (setting [23]) and in test [14] (setting [24]) was 5.4 µM in each case. For the same compound, the GI50 in test [3] (setting [25]) turned out to be 5.62 µM; in test [3] (setting [15]) it was 5.62 µM; in test [4] (setting [16]), 6.74 µM; in test [5] (Tables 8-15), 12.6 µM; in test [6] (setting [17]) it was 10.8 µM; in test [9] (setting [18]), 8.06 µM. Moreover, the GI50 in [10] (setting [19]) was found to be 12.9 µM; in [11] (setting [20]) it was 11.7 µM; in test [12] (setting [21]), 8.45 µM; in test [13] (Tables 8-15) it was 6.09 µM.
As for `CC(C)(C)[C@@H]1C=C(C(=O)N[C@@H](Cc2ccccc2)C(N)=O)[C@H](c2ccc(Br)cc2)N1S(=O)(=O)c1ccccc1Cl` [P61-B08], the figures for the IC50 in test [14] (setting [23]) and in test [14] (setting [24]) were 16 µM and 6 µM, respectively. Moreover, the GI50 is 4.74 µM in [3] (setting [25]); 4.74 µM in test [3] (setting [15]); 5.21 µM in [4] (setting [16]); 4.43 µM in test [5] (Tables 8-15, listed as P61B8); 9.08 µM in test [6] (setting [17]); 6.15 µM in test [9] (setting [18]). Also, the GI50 came to 12.2 µM in test [10] (setting [19]), 9.05 µM in test [11] (setting [20]), 8.32 µM in test [12] (setting [21]) and 6.16 µM in [13] (setting [22]).
